Structures are written as SMILES.

This assay addresses T1, KRAS G12C 1-169, his-tagged protein, GDP-loaded (Homo sapiens, UniProt P01116, G12C).
T1 construct: KRAS G12C 1-169, his-tagged protein, GDP-loaded
Briefly: Biochemical assay: covalent modification of KRAS G12C measured by mass spectrometry (RapidFire/TOF or Q-Exactive). To be noted: covalent binding to KRAS G12C; compounds of structure (I). The method, then: Test compounds were prepared as 10 mM stock solutions in DMSO (Fisher cat #BP-231-100). KRAS G12C 1-169, his-tagged protein, GDP-loaded was diluted to 2 μm in buffer (20 mM Hepes, 150 mM NaCl, 1 mM MgCl2). Compounds were tested for activity as follows:
Compounds were diluted to 50× final test concentration in DMSO in 96-well storage plates. Compound stock solutions were vortexed before use and observed carefully for any sign of precipitation. Dilutions were as follow: • For 100 μM final compound concentration, compounds were diluted to 5000 μM (5 μl 10 mM compound stock+5 μl DMSO and mixed well by pipetting. • For 30 μM final compound concentration, compounds were diluted to 1500 μM (3 μl 10 mM compound stock+17p DMSO) and mixed well by pipetting. • For 10 μM final compound concentration, compounds were diluted to 500 μM (2 μl 10 mM compound stock+38p DMSO) and mixed well by pipetting. 49p of the stock protein solution was added to each well of a 96-well PCR plate (Fisher cat #1423027). 1 μl of the diluted 50× compounds were added to appropriate wells in the PCR plate using 12-channel pipettor. Reactions were mixed carefully and thoroughly by pipetting up/down with a 200·1 multi-channel pipettor. The plate was sealed well with aluminum plate seal, and stored in drawer at room temperature for 30 min, 2 hour or 24 hrs. 5·1 of 2% formic acid (Fisher cat #A117) in DI H2O was then added to each well followed by mixing with a pipette. The plate was then resealed with aluminum seal and stored on dry ice until analyzed as described below.
The above described assays were analyzed by mass spectrometry according to one of the following two procedures:
The MS instrument is set to positive polarity, 2 GHz resolution, and low mass (1700) mode and allowed to equilibrate for 30 minutes. The instrument is then calibrated, switched to acquisition mode and the appropriate method loaded.
After another 30 minute equilibration time, a blank batch (i.e., buffer) is run to ensure equipment is operating properly. The samples are thawed at 37° C. for 10 minutes, briefly centrifuged, and transfer to the bench top. Wells A1 and H12 are spiked with 1 uL 500 uM internal standard peptide, and the plates centrifuged at 2000×g for 5 minutes. The method is then run and masses of each individual well recorded.
The masses (for which integration data is desired) for each well are pasted into the platemap and exported from the analysis. Masses for the internal standards are exported as well. The data at 50 ppm is extracted for the +19 charge state, and identity of well A1 is assigned using the internal standard spike and integrated. Peak data is exported as a TOF list and the above steps are repeated individually, for the +20, 21, 22, 23, 24, and 25 charge states.
The masses and peak intensities of KRAS G12C protein species were measured using a Dionex RSLCnano system (Thermo Scientific) connected to a Q Exactive Plus mass spectrometer (Thermo Scientific).
[…] of sample was each loaded onto a Aeris™ 3.6 μm WIDEPORE C4 200 Å, LC Column 50×2.1 mm column maintained at 40° C. at a flow rate of 600 μl min^−1 with […] (0.1% formic acid in acetonitrile). The liquid chromatography conditions were 20% solvent B for 1 min, 20% to 60% solvent B for 1.5 min, 60% to 90% solvent for 0.5 min, 90% solvent B for 0.2 min, 90% to 20% solvent B for 0.2 min, and then equilibrated for 1.6 min before the following sample injection. The flow rate was maintained at 600 μl min^−1 throughout the sample analysis.
The mass spectrometer was operated in profile mode at a resolution of 17500, 5 microscans, using 50 msec max injection time and an AGC target of 1e6, and a full mass range from 800-1850 m/z was recorded. The HCD trapping gas was optimized for maximum sensitivity for intact proteins. […]

Take `C=CC(=O)N1CCN(c2nc(OCCN3CCOCC3)nc3c(F)c(-c4c(O)cccc4F)c(Cl)cc23)CC1` (atropisomer, axis not shown) [Example I-28, (R)-1-(4-(6-chloro-8-fluoro-7-(2-fluoro-6-hydroxyphenyl)-2-(2-morpholino-ethoxy)quinazolin-4-yl)piperazin-1-yl)prop-2-en-1-one]: the Binding % result was “+ (+ indicates binding activity up to 50%)”.

Turning to `C=CC(=O)N1CCN(c2nc(OCCN3CCOCC3)nc3c(F)c(-c4c(O)cccc4F)c(Cl)cc23)CC1` (atropisomer, axis not shown) [Example I-29, (S)-1-(4-(6-chloro-8-fluoro-7-(2-fluoro-6-hydroxyphenyl)-2-(2-morpholino-ethoxy)quinazolin-4-yl)piperazin-1-yl)prop-2-en-1-one], the Binding % result is recorded as “+++ (+++ indicates binding activity greater than 90%)”.

On to `C=CC(=O)N1CCN(c2nc(OCCN3CCOCC3)nc3c(F)c(-c4c(C)ccc5[nH]ncc45)c(Cl)cc23)CC1` (atropisomer, axis not shown) [Example I-31, (R)-1-(4-(6-chloro-8-fluoro-7-(5-methyl-1H-indazol-4-yl)-2-(2-morpholino-ethoxy)quinazolin-4-yl)piperazin-1-yl)prop-2-en-1-one], for which the Binding % entry is on record as “+++ (+++ indicates binding activity greater than 90%)”. As for `C=CC(=O)N1CCN(c2nc(OCCN3CCOCC3)nc3c(F)c(-c4c(C)ccc5[nH]ncc45)c(Cl)cc23)CC1` (atropisomer, axis not shown) [Example I-32, (S)-1-(4-(6-chloro-8-fluoro-7-(5-methyl-1H-indazol-4-yl)-2-(2-morpholino-ethoxy)quinazolin-4-yl)piperazin-1-yl)prop-2-en-1-one], the entry is “+ (+ indicates binding activity up to 50%)”; as for `C=CC(=O)N1CCN(c2nc(OCCN3CCOCC3)nc3c(F)c(-c4cc(O)cc5ccccc45)c(Cl)cc23)CC1` (atropisomer, axis not shown) [Example I-51, (S)-1-(4-(6-chloro-8-fluoro-7-(3-hydroxy-naphthalen-1-yl)-2-(2-morpholino-ethoxy)quinazolin-4-yl)piperazin-1-yl)prop-2-en-1-one], “+++ (+++ indicates binding activity greater than 90%)”. As for `C=CC(=O)N1CCN(c2nc(OCCN3CCOCC3)nc3c(F)c(-c4cc(O)cc5ccccc45)c(Cl)cc23)CC1` (atropisomer, axis not shown) [Example I-52, (R)-1-(4-(6-chloro-8-fluoro-7-(3-hydroxy-naphthalen-1-yl)-2-(2-morpholino-ethoxy)quinazolin-4-yl)piperazin-1-yl)prop-2-en-1-one], the entry is “+ (+ indicates binding activity up to 50%)”; as for `C=CC(=O)N1CCN(c2nc(NC3CCN(C4CC4)CC3)nc3c(F)c(-c4c(O)cccc4F)c(Cl)cc23)CC1` (atropisomer, axis not shown) [Example I-78, (S)-1-(4-(6-chloro-2-(1-cyclopropyl-piperidin-4-ylamino)-8-fluoro-7-(2-fluoro-6-hydroxyphenyl)quinazolin-4-yl)piperazin-1-yl)prop-2-en-1-one], “+++ (+++ indicates binding activity greater than 90%)”; as for `C=CC(=O)N1CCN(c2nc(NC3CCN(C4CC4)CC3)nc3c(F)c(-c4c(O)cccc4F)c(Cl)cc23)CC1` (atropisomer, axis not shown) [Example I-79, (R)-1-(4-(6-chloro-2-(1-cyclopropyl-piperidin-4-ylamino)-8-fluoro-7-(2-fluoro-6-hydroxyphenyl)quinazolin-4-yl)piperazin-1-yl) prop-2-en-1-one], “+ (+ indicates binding activity up to 50%)”. As for `C=CC(=O)N1CCN(c2nc(NC3CCN(C4CC4)CC3)nc3c(F)c(-c4c(C)ccc5[nH]ncc45)c(Cl)cc23)CC1` (atropisomer, axis not shown) [Example I-81, (S)-1-(4-(6-chloro-2-(1-cyclopropyl-piperidin-4-ylamino)-8-fluoro-7-(5-methyl-1H-indazol-4-yl)quinazolin-4-yl)piperazin-1-yl)prop-2-en-1-one], the entry is “+ (+ indicates binding activity up to 50%)”. `C=CC(=O)N1CCN(c2nc(NC3CCN(C4CC4)CC3)nc3c(F)c(-c4c(C)ccc5[nH]ncc45)c(Cl)cc23)CC1` (atropisomer, axis not shown) [Example I-82, (R)-1-(4-(6-chloro-2-(1-cyclopropyl-piperidin-4-ylamino)-8-fluoro-7-(5-methyl-1H-indazol-4-yl)quinazolin-4-yl)piperazin-1-yl)prop-2-en-1-one]: the Binding % result was “+++ (+++ indicates binding activity greater than 90%)”. The value for `C=CC(=O)N1CCN(c2nc(OCCN(CC)CC)nc3c(F)c(-c4c(O)cccc4F)c(Cl)cc23)CC1` (atropisomer, axis not shown) [Example I-87, (S)-1-(4-(6-chloro-2-(2-(diethylamino)ethoxy)-8-fluoro-7-(2-fluoro-6-hydroxyphenyl)quinazolin-4-yl)piperazin-1-yl) prop-2-en-1-one] was “+++ (+++ indicates binding activity greater than 90%)”; that for `C=CC(=O)N1CCN(c2nc(OCCN(CC)CC)nc3c(F)c(-c4c(O)cccc4F)c(Cl)cc23)CC1` (atropisomer, axis not shown) [Example I-88, (R)-1-(4-(6-chloro-2-(2-(diethylamino)ethoxy)-8-fluoro-7-(2-fluoro-6-hydroxyphenyl)quinazolin-4-yl)piperazin-1-yl) prop-2-en-1-one] was “+ (+ indicates binding activity up to 50%)”. The value for `C=CC(=O)N1CCN(c2nc(OCCN(C)C)nc3c(F)c(-c4cc(O)cc5ccccc45)c(Cl)cc23)CC1` (atropisomer, axis not shown) [Example I-95, (S)-1-(4-(6-chloro-2-(2-(dimethylamino)ethoxy)-8-fluoro-7-(3-hydroxy-naphthalen-1-yl)quinazolin-4-yl)piperazin-1-yl)prop-2-en-1-one] was “+++ (+++ indicates binding activity greater than 90%)”; that for `C=CC(=O)N1CCN(c2nc(OCCN(C)C)nc3c(F)c(-c4cc(O)cc5ccccc45)c(Cl)cc23)CC1` (atropisomer, axis not shown) [Example I-96, (R)-1-(4-(6-chloro-2-(2-(dimethylamino)ethoxy)-8-fluoro-7-(3-hydroxy-naphthalen-1-yl)quinazolin-4-yl)piperazin-1-yl)prop-2-en-1-one] was “+ (+ indicates binding activity up to 50%)”. The value for `C=CC(=O)N1CCN(c2nc(OCCN3CCC(F)(F)C3)nc3c(F)c(-c4c(O)cccc4F)c(Cl)cc23)CC1` (atropisomer, axis not shown) [Example I-97, (S)-1-(4-(6-chloro-2-(2-(3,3-difluoro-pyrrolidin-1-yl)ethoxy)-8-fluoro-7-(2-fluoro-6-hydroxyphenyl)quinazolin-4-yl)piperazin-1-yl)prop-2-en-1-one] was “+++ (+++ indicates binding activity greater than 90%)”; that for `C=CC(=O)N1CCN(c2nc(OCCN3CCC(F)(F)C3)nc3c(F)c(-c4c(O)cccc4F)c(Cl)cc23)CC1` (atropisomer, axis not shown) [Example I-98, (R)-1-(4-(6-chloro-2-(2-(3,3-difluoro-pyrrolidin-1-yl)ethoxy)-8-fluoro-7-(2-fluoro-6-hydroxyphenyl)quinazolin-4-yl)piperazin-1-yl) prop-2-en-1-one] was “+ (+ indicates binding activity up to 50%)”.

For the origin of these results see patent US10829458B2 (Araxes Pharma LLC, priority 2015, dated 2020).
